The source of these data is PubChem BioAssay (NCI).

What all share (test): DTP human tumour cell line panel, 48 h
The subject of assay [1] is EKVX NSCLC.
Assay [2] concerns HCT-15 colon.
The subject of assay [3] is HT29 colon.
Assay [4] deals with IGROV1 ovarian.
The subject of assay [5] is K-562 leukemia.
The subject of assay [6] is SF-268 CNS.
The test system of assay [7] is SK-MEL-5 melanoma.
The test system of assay [8] is SR leukemia.
Assay [9] has as its system HOP-92 NSCLC.

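Tested at 5 concentrations; 48 h exposure; 96-well plates; endpoints linearly interpolated, else capped at highest concentration. Here, GI50 denotes the concentration required for 50% inhibition of growth. TGI marks complete inhibition of growth.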

As a reminder, the TGI is the concentration giving total growth inhibition. With `CCOC(=O)C(NC(=O)c1nc[nH]c1[N+](=O)[O-])C(C)C` (centres undefined), the TGI in [1], in assay [2], in assay [3], in assay [4], in assay [5] and in assay [6] was more than 100 µM each time. Moreover, the TGI in assay [7] and in assay [8] was more than 100 µM each time.

On to `C[N+](C)(C)CC1CCCCC1O` (centres undefined), for which the TGI in assay [2], in [9], in [3], in assay [4], in [6] and in assay [7] was more than 100 µM throughout. In assay [8], this molecule came in with a TGI of more than 100 µM.

Turning to `CCOC(=O)NC(=O)c1cn(CCN2CCN(C(=O)CCCCCCCCCCC(=O)N3CCN(CCn4cc(C(=O)NC(=O)OCC)c(=O)[nH]c4=O)CC3)CC2)c(=O)[nH]c1=O`, the TGI in [9], in assay [3], in assay [4], in assay [5], in assay [6] and in assay [7] was more than 100 µM throughout. Further, in [8], the TGI is more than 100 µM.

Take `CSC(=NCCc1c[nH]c2ccccc12)NC#N`: the TGI in assay [1], in assay [2], in [3], in [4], in assay [5] and in assay [6] was more than 100 µM throughout. In addition, the TGI in [7] and in [8] was more than 100 µM each time.

The GI50 is the concentration giving 50% growth inhibition. In the case of `CC(C)(C)C(=O)[CH-]C(=O)C(C)(C)C.CC(C)(C)C(=O)[CH-]C(=O)C(C)(C)C.CN(C)c1ccc([O-])cc1.CN(C)c1ccc([O-])cc1.[Ti+4]`, the GI50 is more than 100 µM in assay [1]; more than 100 µM in assay [2]; 72 µM in [9]; more than 100 µM in assay [3]; more than 100 µM in assay [4]; more than 100 µM in assay [5]. Moreover, the GI50 in assay [6] and in [7] was more than 100 µM in each case. The TGI in assay [1], in assay [2], in [9], in assay [3], in assay [4] and in assay [5] was more than 100 µM each time. The TGI in [6] and in assay [7] was more than 100 µM in each case.

Regarding `O=[N+]([O-])c1ccc(Sc2c3ccccc3nc3cc(Cl)ccc23)cc1`, the GI50 in [1], in assay [2], in assay [4], in assay [5], in assay [6] and in assay [7] was more than 100 µM throughout. Moreover, the TGI in [1], in assay [2], in [9], in assay [3], in assay [4] and in assay [5] was more than 100 µM throughout. In addition, the TGI was more than 100 µM in assay [6], more than 100 µM in [7] and 68.1 µM in assay [8].

As to `CN(C)C(=S)/N=c1\ssc(=S)n1Cc1ccncc1`, the TGI in [1] was more than 100 µM; in [2] it was 55.1 µM; in assay [4] it was 63.3 µM; in [5], more than 100 µM; in [6], more than 100 µM; in assay [7], 17.4 µM. The TGI in assay [8] came to 45.4 µM.

In the case of `N/N=C1\C(=O)N(CCc2ccccc2)C(=O)C1C(=O)NCCc1ccccc1` (centres undefined), the TGI in assay [1], in [9], in assay [3], in assay [4], in assay [5] and in [6] was more than 100 µM throughout. For the same molecule, in assay [8], the TGI is more than 100 µM.

Take `CCCCN(CC)CC(C(C)=O)c1c(O)c2ccccc2oc1=O` (centres undefined): the TGI in assay [1], in assay [2], in [3], in assay [4], in assay [5] and in assay [6] was more than 100 µM in each case. Also, the TGI in assay [7] and in assay [8] was more than 100 µM throughout.

On to `CSC(=S)N/N=C/c1nccc2ccccc12`, for which the TGI was 12.8 µM in assay [1]; 40 µM in assay [2]; 6.36 µM in assay [9]; more than 67.5 µM in assay [3]; 8.05 µM in assay [4]; 14.3 µM in assay [5]. In addition, the TGI was 9.65 µM in [6], 2.66 µM in [7] and 18.8 µM in assay [8].

In the case of `C/C(=N/NC(=O)C[N+](C)(C)C)C(CN(C)C)C(=O)Nc1ccccc1` (centres undefined), the TGI in [1], in [2], in [3], in assay [4], in assay [5] and in assay [6] was more than 100 µM in each case. Also, the TGI in [7] and in assay [8] was more than 100 µM in each case.

On to `CSC1=Nc2ccccc2N=C(c2ccc(Cl)cc2)C1`, for which the TGI in assay [1] was more than 100 µM; in assay [2], more than 100 µM; in assay [3], 90 µM; in assay [4], more than 100 µM; in assay [5] it was more than 100 µM; in [6], more than 100 µM. Moreover, the TGI in assay [7] was 51.3 µM; in assay [8], more than 100 µM.

Consider `O=C(O)c1ccc(C2C(=O)N[C@@H]3CCC[C@H]23)cc1` (some centres undefined), for which the TGI in [1], in assay [2], in [3], in [4], in assay [5] and in [6] was more than 100 µM each time. The same molecule had a TGI in [7] of more than 100 µM.

Consider `CCCCN(CCCC)C(=O)/C(CC(=O)c1cccc2ccccc12)=N\NC(=O)c1cc2ccccc2cc1O`, for which the TGI in assay [1] came out at 50.9 µM; in [9] it was 56.8 µM; in assay [3] it was 57.7 µM; in assay [4], 71.3 µM; in assay [6], 70.9 µM; in assay [7] it was 32 µM.

Turning to `Cc1c(C(=O)O)oc2ccc([N+](=O)[O-])cc12`, the TGI in assay [1], in [2], in assay [9], in [3], in assay [4] and in assay [5] was more than 100 µM each time. Besides, the TGI in assay [6] and in assay [7] was more than 100 µM each time.
